We go through 29 molecules from patent US10011615B2, “Heterobicyclo-substituted [1,2,4]triazolo[1,5-c]quinazolin-5-amine compounds with A2A anatagonist properties” (Merck Sharp & Dohme Corp., priority 2012, dated 2018).

SMILES strings stand for the structures.

The target in the assay is T1, human A2a receptor (Homo sapiens, UniProt P29274).
T1 construct: purchased Perkin-Elmer RBHA2AM400UA; host or cells: HEK293 cell membranes
Briefly: A2a receptor competition binding assay using Scintillation Proximity technology. To be noted: membranes from HEK293 cells expressing human A2a receptor; 0.5 nM tritiated radioligand; SPA beads; 1 h room temperature. Here is the method:
Binding affinities of compounds of the invention for the human A2a receptor were determined in a competition binding assay using Scintillation Proximity technology. Thus, 0.3 μg of membranes from HEK293 cells expressing the human A2a receptor were incubated with a compound of the invention at concentrations ranging from 3000 nM to 0.15 nM in a reaction mixture containing also 0.5 nM of a tritiated form of 5-amino-7-[2-phenethyl]-2-(furan-2-yl)-7H-pyrazolo[4,3-e][1,2,4]triazolo[1,5-c]pyrimidine (the tritiated compound) and 100 μg of wheat germ agglutin-coated yttrium silicate SPA beads for one hour at room temperature with agitation. The beads were then allowed to settle to the bottom of the wells for 1 hr, after which the membrane-associated radioactivity was determined by scintillation counting in a TopCount microplate reader. Ki values were determined using the Cheng-Prusoff equation.
Summary of Materials and Methods Used in A2a Activity Determination:
HEK293 cells expressing the human, rat, dog or monkey adenosine 2a receptor (Purchased from Perkin-Elmer # RBHA2AM400UA).
The Tritiated compound was prepared in-house by MRL Radiochemistry according to published methods.
Wheat germ agglutinin-coated yttrium silicate SPA beads (GE Healthcare#RPNQ0023). Dilute to 25 mg/ml in assay buffer.
Assay Buffer was prepared in house: Dulbecco's calcium and magnesium free phosphate buffered saline+10 mM MgCl2
Adenosine deaminase from calf intestine, 10 mg/2 ml (Roche) 10 102 105 001).
A2a antagonist standard (9-chloro-1-(2-furanyl)-[1,2,4]triazolo1,5-c]quinazolin-5-amine from Tocris Bioscience)
Make eight 1:3 serial dilutions in 100% DMSO from a 3 mM compound stock
Transfer 50 nl of compound into a 384-well OptiPlate (Perkin Elmer).
Typically, final concentrations of compound used in the assay ranged from 3000 nM to 0.152 nM.
Dilute a solution of the Tritiated compound to 1.25 nM in assay buffer. This is a 2.5× solution. The final concentration in the assay is 0.5 nM. Calculate the concentration by counting two 5 μl aliquots.
Use 0.25 ug of membrane/well. Dilute membranes to 9.7 μg/ml in assay buffer. Treat with 20 ug/ml adenosine deaminase (ADA) for 15 minutes at room temperature to degrade endogenous adenosine.
Use 100 μg/well wheat germ agglutinin-coated yttrium silicate SPA beads.
Mix ADA-treated membranes and SPA beads together for 30 min prior to assay.
To the Perkin-Elmer Optiplate-384 containing the compound titration add 20 μl of 2.5× solution of the Tritiated compound and 30 μl of the membrane-bead mixture. Incubate for one hour at room temperature with agitation.
Include total binding (assay buffer+1% DMSO) and non-specific binding (CGS15943, 1 μM) wells.
Allow the beads to settle for one hour.
A curve fitting program (i.e., Prism, Activity Base, Chemcart) is used to determine the EC50. The Ki value is calculated using the Cheng-Prusoff equation: K i=EC50/(1+(radioligand concentration/Kd)).

T1 sequence (P29274 whole entry): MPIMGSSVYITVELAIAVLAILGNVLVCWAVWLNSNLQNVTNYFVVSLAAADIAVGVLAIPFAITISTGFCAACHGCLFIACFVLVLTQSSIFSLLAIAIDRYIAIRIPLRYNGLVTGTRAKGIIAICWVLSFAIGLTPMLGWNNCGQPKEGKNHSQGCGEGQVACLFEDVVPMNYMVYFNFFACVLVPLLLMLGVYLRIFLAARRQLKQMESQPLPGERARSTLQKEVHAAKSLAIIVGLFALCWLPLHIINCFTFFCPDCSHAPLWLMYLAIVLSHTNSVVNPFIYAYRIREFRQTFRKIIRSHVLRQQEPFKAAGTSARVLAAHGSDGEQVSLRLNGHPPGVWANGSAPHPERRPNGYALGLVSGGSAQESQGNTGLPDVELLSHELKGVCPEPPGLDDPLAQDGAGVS

The molecule `COc1cccc2c1nc(N)n1nc(CCN3CCc4nc(C)oc4C3)nc21` [Ex-28, 7-methoxy-2-(2-(2-methyl-6,7-dihydrooxazolo[5,4-c]pyridin-5(4H)-yl)ethyl)-[1,2,4]triazolo[1,5-c]quinazolin-5-amine] showed an EC50 of 2.2 nM.

For `COc1cccc2c1nc(N)n1nc(CCN3CCc4nc(C)sc4C3)nc21` [Ex-29, 7-methoxy-2-(2-(2-methyl-6,7-dihydrothiazolo[5,4-c]pyridin-5(4H)-yl)ethyl)-[1,2,4]triazolo[1,5-c]quinazolin-5-amine], the EC50 amounted to 1.7 nM. The EC50 values of the last two molecules are within 1.5-fold of each other.

As to `COc1cccc2c1nc(N)n1nc(CCN3CCc4nc(C5CC5)sc4C3)nc21` [Ex-30, 2-(2-(2-cyclopropyl-6,7-dihydrothiazolo[5,4-c]pyridin-5(4H)-yl)ethyl)-7-methoxy-[1,2,4]triazolo[1,5-c]quinazolin-5-amine], the EC50 is 1.1 nM.

In turn, `COc1cccc2c1nc(N)n1nc(CCN3CCc4nc(C5CC5)oc4C3)nc21` [Ex-31, 2-(2-(2-cyclopropyl-6,7-dihydrooxazolo[5,4-c]pyridin-5(4H)-yl)ethyl)-7-methoxy[1,2,4]triazolo[1,5-c]quinazolin-5-amine] came in with an EC50 of 1.3 nM.

In the case of `COc1cccc2c1nc(N)n1nc(CCN3CCc4c(c(C(F)(F)F)nn4C)C3)nc21` [Ex-32, 7-methoxy-2-(2-(1-methyl-3-(trifluoromethyl)-677-dihydro-1H-pyrazolo[4,3-c]pyridin-5(4H)-yl)ethyl)-[1,2,4]triazolo[1,5-c]quinazolin-5-amine], a half-maximal effect (EC50) was put at 1.4 nM.

Take `COc1cccc2c1nc(N)n1nc(CCN3CCn4nccc43)nc21` [Ex-33, 2-(2-(2,3-dihydro-1H-imidazo[1,2-b]pyrazol-1-yl)ethyl)-7-methoxy-[1,2,4]triazolo[1,5-c]quinazolin-5-amine]: the EC50 stood at 4.2 nM.

`COc1cccc2c1nc(N)n1nc(CCN3Cc4nc(-c5ccccc5)[nH]c4C3)nc21` [Ex-34] displayed an EC50 of 1.7 nM. This EC50 lies about 2.5-fold lower than the previous one.

Molecule `COc1cccc2c1nc(N)n1nc(CCN3CCc4oncc4C3)nc21` [Ex-35, 2-(2-(6,7-dihydroisoxazolo[4,5-c]pyridin-5(4H)-yl)ethyl)-7-methoxy-[1,2,4]triazolo[1,5-c]quinazolin-5-amine] displayed an EC50 of 2.3 nM.

In the case of `COc1cccc2c1nc(N)n1nc(CCN3CCc4[nH]ncc4C3)nc21` [Ex-36, 2-(2-(6,7-dihydro-1H-pyrazolo[4,3-c]pyridin-5(4H)-yl)ethyl)-7-methoxy-[1,2,4]triazolo[1,5-c]quinazolin-5-amine], the EC50 was determined as 6.7 nM. This EC50 lies about 2.9-fold higher than the previous one.

For the molecule `COc1cccc2c1nc(N)n1nc(CCN3CCc4[nH]nc(C)c4C3)nc21` [Ex-37, 7-methoxy-2-(2-(3-methyl-6,7-dihydro-1H-pyrazolo[4,3-c]pyridin-5(4H)-yl)ethyl)-[1,2,4]triazolo[1,5-c]quinazolin-5-amine], the EC50 stood at 6.4 nM.

On to `COc1cccc2c1nc(N)n1nc(CCN3CCc4[nH]nc(C(F)(F)F)c4C3)nc21` [Ex-38, 7-methoxy-2-(2-(3-(trifluoromethyl)-6,7-dihydro-1H-pyrazolo[4,3-c]pyridin-5(4H)-yl)ethyl)-[1,2,4]triazolo[1,5-c]quinazolin-5-amine], for which the EC50 came out at 2 nM.

`COc1cccc2c1nc(N)n1nc(CCN3CCc4sccc4C3)nc21` [Ex-39] registered an EC50 of 1.8 nM. The EC50 values of the last two molecules are within 1.5-fold of each other.

In the case of `COc1cccc2c1nc(N)n1nc(CCN3CCc4c(C5CC5)n[nH]c4C3)nc21` [Ex-40, 2-(2-(3-cyclopropyl-4,5-dihydro-1H-pyrazolo[3,4-c]pyridin-6(7H)-yl)ethyl)-7-methoxy-[1,2,4]triazolo[1,5-c]quinazolin-5-amine], the EC50 was determined as 1.1 nM.

Molecule `COc1cccc2c1nc(N)n1nc(CCN3CCn4nc(C)cc4C3)nc21` [Ex-41, 7-methoxy-2-(2-(2-methyl-6,7-dihydropyrazolo[1,5-a]pyrazin-5(4H)-yl)ethyl)-[1,2,4]triazolo[1,5-c]quinazolin-5-amine] displayed an EC50 of 2.6 nM.

Regarding `COc1cccc2c1nc(N)n1nc(CCN3CCc4c(C(F)(F)F)n[nH]c4C3)nc21` [Ex-42, 7-methoxy-2-(2-(3-(trifluoromethyl)-4,5-dihydro-1H-pyrazolo[3,4-c]pyridin-6(7H)-yl)ethyl)-[1,2,4]triazolo[1,5-c]quinazolin-5-amine], the EC50 worked out at 1.4 nM.

`COc1cccc2c1nc(N)n1nc(CCN3CCCc4c3c(C(F)(F)F)nn4C)nc21` [Ex-43, 7-methoxy-2-(2-(1-methyl-3-(trifluoromethyl)-6,7-dihydro-1H-pyrazolo[4,3-b]pyridin-4(5H)-yl)ethyl)-[1,2,4]triazolo[1,5-c]quinazolin-5-amine] registered an EC50 of 8.4 nM.

`COc1cccc2c1nc(N)n1nc(CCN3CCc4cc(F)ccc4C3)nc21` [Ex-44, 2-(2-(6-fluoro-3,4-dihydroisoquinolin-2(1H)-yl)ethyl)-7-methoxy-[1,2,4]triazolo[1,5-c]quinazolin-5-amine] showed an EC50 of 4.2 nM.

`COc1cccc2c1nc(N)n1nc(CCN3CCc4cccnc4C3)nc21` [Ex-45, 2-(2-(5,6-dihydro-1,7-naphthyridin-7(8H)-yl)ethyl)-7-methoxy-[1,2,4]triazolo[1,5-c]quinazolin-5-amine] showed an EC50 of 4.3 nM. This EC50 and that of the molecule before are within 1.5-fold of each other.

Take `COc1cccc2c1nc(N)n1nc(CCN3Cc4ccc(C(F)(F)F)cc4C3)nc21` [Ex-46, 7-methoxy-2-(2-(5-(trifluoromethyl)isoindolin-2-yl)ethyl)-[1,2,4]triazolo[1,5-c]quinazolin-5-amine]: the EC50 amounted to 18 nM.

`COc1cccc2c1nc(N)n1nc(CCN3Cc4ccc(F)cc4C3)nc21` [Ex-48, 2-(2-(5-fluoroisoindolin-2-yl)ethyl)-7-methoxy-[1,2,4]triazolo[1,5-c]quinazolin-5-amine] came in with a concentration for a half-maximal effect (EC50) of 4.6 nM.

In the case of `COc1cccc2c1nc(N)n1nc(CCN3Cc4cccnc4C3)nc21` [Ex-49, 2-(2-(5H-pyrrolo[3,4-b]pyridin-6(7H)-yl)ethyl)-7-methoxy-[1,2,4]triazolo[1,5-c]quinazolin-5-amine], the midpoint of the response, the EC50, lay at 5.4 nM.

Consider `COc1cccc2c1nc(N)n1nc(CCN3Cc4[nH]nc(-c5ccccc5)c4C3)nc21` [Ex-50, 7-methoxy-2-(2-(3-phenylpyrrolo[3,4-c]pyrazol-5(1H,4H,6H)-yl)ethyl)-[1,2,4]triazolo[1,5-c]quinazolin-5-amine], for which the EC50 is 1.5 nM. Against the preceding molecule, the EC50 is about 3.6-fold lower.

`COc1cccc2c1nc(N)n1nc(CCN3Cc4cn[nH]c4C3)nc21` [Ex-51, 7-methoxy-2-(2-(pyrrolo[3,4-c]pyrazol-5(1H,4H,6H)--yl)ethyl)-[1,2,4]triazolo[1,5-c]quinazolin-5-amine] had an EC50 of 2.9 nM. This EC50 is about 1.9-fold higher than that of the molecule before.

Take `COc1cccc2c1nc(N)n1nc(CCN3CCCc4[nH]nc(C5CC5)c43)nc21` [Ex-52, 2-(2-(3-cyc1opropyl-6,7-dihydro-1H-pyrazolo[4,3-b]pyridin-4(5H)-yl)ethyl)-7-methoxy[1,2,4]triazolo[1,5-c]quinazolin-5-amine]: the EC50 was 8.8 nM.

In turn, `COc1cccc2c1nc(N)n1nc(CCN3CCc4cncnc4C3)nc21` [Ex-53, 2-(2-(5,6-dihydropyrido[3,4-d]pyrimidin-7(8H)-yl)ethyl)-7-methoxy-[1,2,4]triazolo[1,5-c]quinazolin-5-amine] had a 50% effective concentration (EC50) of 2.4 nM.

Take `COc1cccc2c1nc(N)n1nc(CCN3CCc4ncncc4C3)nc21` [Ex-54, 2-(2-(7,8-dihydropyrido[4,3-d]pyrimidin-6(5H)-yl)ethyl)-7-methoxy-[1,2,4]triazolo[1,5-c]quinazolin-5-amine]: the EC50 worked out at 4 nM. Compared with the last molecule, the EC50 is about 1.7-fold higher.

In the case of `COc1cccc2c1nc(N)n1nc(CCN3CCc4nccnc4C3)nc21` [Ex-55, 2-(2-(7,8-dihydropyrido[4,3-b]pyrazin-6(5H)-yl)ethyl)-7-methoxy-[1,2,4]triazolo[1,5-c]quinazolin-5-amine], the EC50 was 1.8 nM. Compared with the last molecule, the EC50 is about 2.2-fold lower.

For `COc1cccc2c1nc(N)n1nc(CCN3CCc4ncsc4C3)nc21` [Ex-56, 2-(2-(6,7-dihydrothiazolo[5,4-c]pyridin-5(4H)-yl)ethyl)-7-methoxy-[1,2,4]triazolo[1,5-c]quinazolin-5-amine], the EC50 was found to be 3.4 nM.

In the case of `COc1cccc2c1nc(N)n1nc(CCN3CCc4scnc4C3)nc21` [Ex-57, 2-(2-(6,7-dihydrothiazolo[4,5-c]pyridin-5(4H)-yl)ethyl)-7-methoxy-[1,2,4]triazolo[1,5-c]quinazolin-5-amine], the EC50 stood at 1.7 nM.
